Earlier results on one molecule are cited in patent publication US20090143362A1, “CARBAMAZEPINE FORMULATIONS” (priority 2007, published 2009).

The conditions of data set [1]: blood level.
The conditions of data set [2]: in presence of water, after 1 hour, X-ray powder diffraction.

For the molecule `NC(=O)N1c2ccccc2C=Cc2ccccc21` [Carbamazepine, 5H-dibenz-[b,f]azepine-5-carboxamide], the water solubility result was “poorly water-soluble”. Also, the therapeutic range in data set [1] was 4 to 12 µg/mL. In addition, the “conversion to carbamazepine dihydrate complete” value in data set [2] is listed as 95%.
